35 molecules from ChEMBL document CHEMBL4184329, “Identification and Structure-Activity Relationship of HDAC6 Zinc-Finger Ubiquitin Binding Domain Inhibitors” (J Med Chem, 2018) can be followed below.

Each structure is given as a SMILES string.

In the first test the target is T1, Protein deacetylase HDAC6 (Homo sapiens, UniProt Q9UBN7).
T1 sequence (Q9UBN7 whole entry): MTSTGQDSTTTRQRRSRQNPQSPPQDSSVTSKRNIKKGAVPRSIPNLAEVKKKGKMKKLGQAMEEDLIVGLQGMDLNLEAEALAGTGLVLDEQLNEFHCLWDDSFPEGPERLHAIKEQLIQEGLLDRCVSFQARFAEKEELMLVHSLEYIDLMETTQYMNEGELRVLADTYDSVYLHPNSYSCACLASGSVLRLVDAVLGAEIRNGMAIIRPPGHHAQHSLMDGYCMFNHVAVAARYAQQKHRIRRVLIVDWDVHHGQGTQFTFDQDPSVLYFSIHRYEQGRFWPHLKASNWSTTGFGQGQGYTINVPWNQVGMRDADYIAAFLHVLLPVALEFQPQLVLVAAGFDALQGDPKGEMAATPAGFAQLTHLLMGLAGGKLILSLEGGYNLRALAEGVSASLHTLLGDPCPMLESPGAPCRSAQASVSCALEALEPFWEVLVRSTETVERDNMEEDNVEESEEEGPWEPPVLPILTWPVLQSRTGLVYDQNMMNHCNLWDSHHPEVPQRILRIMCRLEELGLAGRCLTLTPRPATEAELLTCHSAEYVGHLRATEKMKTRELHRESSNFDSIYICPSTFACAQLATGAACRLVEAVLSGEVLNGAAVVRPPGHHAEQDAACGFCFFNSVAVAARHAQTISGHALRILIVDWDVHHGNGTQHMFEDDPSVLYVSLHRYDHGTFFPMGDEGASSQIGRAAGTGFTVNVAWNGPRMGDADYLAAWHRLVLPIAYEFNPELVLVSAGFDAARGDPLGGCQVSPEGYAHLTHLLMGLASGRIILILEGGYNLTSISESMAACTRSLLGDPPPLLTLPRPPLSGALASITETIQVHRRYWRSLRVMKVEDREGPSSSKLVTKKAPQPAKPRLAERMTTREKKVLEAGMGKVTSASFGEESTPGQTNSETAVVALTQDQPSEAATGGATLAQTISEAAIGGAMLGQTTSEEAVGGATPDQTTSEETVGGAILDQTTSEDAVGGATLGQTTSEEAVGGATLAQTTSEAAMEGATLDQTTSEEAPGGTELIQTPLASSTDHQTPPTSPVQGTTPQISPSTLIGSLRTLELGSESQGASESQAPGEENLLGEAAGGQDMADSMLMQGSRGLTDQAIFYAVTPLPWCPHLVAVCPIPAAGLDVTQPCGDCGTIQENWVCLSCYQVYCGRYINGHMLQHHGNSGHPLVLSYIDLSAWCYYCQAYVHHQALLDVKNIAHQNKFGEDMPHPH
The test can be described thus: Displacement of N-terminal FITC-labeled RLRGG from N-terminal AviTag/C-terminal His6-tagged HDAC6 ZnF-UBD (unknown origin) expressed in Escherichia coli BL21 (DE3) after 10 mins by fluorescence polarization assay.
Details: not given; call rule not given here
On the technique in general: In fluorescence polarisation assays a small probe gives low polarisation when free and higher when bound to something large.
On to `O=C(O)CCc1cc2ccccc2o1`, for which the IC50 (commonly the midpoint of a concentration-inhibition curve) is reported as “Not Active”. Same read-out and setting: with `O=C(O)CCc1nc2ccccc2o1` the entry was “Not Active”; with `COC(=O)CCc1nc2ccccc2nc1OC`, “Not Active”; with `COC(CC(=O)O)c1nc2ccccc2s1` (stereo unspecified), “Not Active”.

Regarding `O=C(O)CCCc1nc2ccccc2s1`, the IC50 result is “Not Active”.

Consider `O=C(O)Cc1ccc2ccccc2n1`, for which the IC50 result was “Not Active”. As to `CNC(=O)CCc1nc2ccccc2nc1OC`, the IC50 result was “Not Active”. Same read-out and setting: with `CS(=O)(=O)Cc1nc2ccccc2n1CC(=O)Nc1cccc(NC(N)=O)c1` the entry was “Not Active”; with `COc1nc2ccccc2nc1CCC(N)=O`, “Not Active”. On to `COc1nccnc1CCC(=O)O`, for which the IC50 result was “Not Active”. On the same count and under the same terms, for `O=C(O)CCc1nc2ccccc2[nH]1` [PROCODAZOLE] the value was “Not Active”. On to `COC(Cc1nc2ccccc2s1)C(=O)O` (stereo unspecified), for which the IC50 entry is “Not Active”.

Take `O=C(O)C(O)C(O)c1nc2ccccc2s1` (stereo unspecified): the IC50 entry is reported as “Not Active”. Same read-out and setting: with `CC(Cc1nc2ccccc2s1)C(=O)O` (stereo unspecified) the entry was “Not Active”; with `CN(C(=O)Cn1c(CS(C)(=O)=O)nc2ccccc21)c1ccccc1`, “Not Active”.

The test is the same for the next values; noted with them: read-out: IC50.
On to `O=C(O)Cc1nc2ccccc2s1`, for which the IC50 was 390 µM. Same read-out and setting: with `O=C(O)CCc1nc2cc(Cl)ccc2n(Cc2ccccc2)c1=O` the figure was 150 µM; with `O=C(O)Cn1cnc2c(oc3ccccc32)c1=O`, 51 µM; with `O=C(O)CCc1nc2cc3nc(CCC(=O)O)sc3cc2s1`, 5.1 µM.

Consider `O=C(O)CCc1ccc2ccccc2n1`, for which the half-maximal inhibitory concentration (IC50) is over 720 µM.

On to `O=C(O)CCn1nnc2ccccc2c1=O`, for which the IC50 came out at 240 µM. Same read-out and setting: with `Cc1cc(C)c2c(n1)sc1c(=O)n(CC(=O)O)cnc12` the figure was 190 µM.

Take `Cn1c(CCC(=O)O)nc2ccccc21`: the IC50 stood at 100 µM.

Turning to `N#Cc1c2n(c3c(=O)n(CC(=O)O)cnc13)CCCC2`, the 50% inhibitory concentration (IC50) worked out at 77 µM.

`NC(=O)c1cc(-n2c(CCC(=O)O)nc3ccccc32)cs1`: the IC50 worked out at 640 µM. The same measure, in the same setting: for `O=C(O)Cn1cnc2ccccc2c1=O` the value was 320 µM; for `COc1nc2ccccc2nc1CCC(=O)O`, 45 µM; for `O=C(O)CCc1nc2ccccc2c2nc(=O)c(Cc3ccccc3)nn12`, 25 µM. The same measure, in the same setting: for `COc1cc2ncn(CC(=O)O)c(=O)c2cc1OC` the value was 44 µM. Consider `O=C(O)Cn1nc(O)c2ccccc2c1=O`, for which the IC50 turned out to be 200 µM. On the same count and under the same terms, with `O=C(O)CCc1nc2ccccc2s1` the figure was 180 µM; with `O=C(O)CCc1nc(O)c2ccccc2n1`, 230 µM; with `O=C(O)Cn1cnc2ccc(Br)cc2c1=O`, 200 µM. For the molecule `Cn1c(=O)c(CCC(=O)O)nc2ccccc21`, the IC50 was found to be 65 µM. The same measure, in the same setting: for `COc1cc2ncn(CCC(=O)O)c(=O)c2cc1OC` the value was 95 µM.

In a further test the target is T1, Protein deacetylase HDAC6. The test can be described thus: Binding affinity to biotinylated HDAC6 ZnF-UBD (unknown origin) by surface plasmon resonance method.
Details: not given
Background: Surface plasmon resonance follows binding to a sensor surface in real time, without labels.
Turning to `O=C(O)CCc1nc2cc3nc(CCC(=O)O)sc3cc2s1`, the Kd (usually the concentration at which binding is half-saturated) was 8 µM.
